Patent publication US20170266174A1, “Compositions and Methods for Extending Lifespan” (COLLABORATIVE MEDICINAL DEVELOPMENT LLC, priority 2014, published 2017)
Entries after “also recorded” stand apart in the source; their conditions may differ.

Legend:
C. elegans [1] = experiment: Lifespan analysis of C. elegans treated with SIH; format: in vivo, Caenorhabditis elegans; details: for median lifespan: 25° C., treated from adulthood onwards, control (0 μM SIH) 12 days
Method: The effects of genetic ablation of ftn-2 and ftn-1 on wild type was measured using established protocols(11, 38). For SIH treatment compound was dissolved in dimethyl sulfoxide (Sigma-Aldrich) then added to the molten NGM at 55° C. along with 50 μg/mL amplicillin (Sigma-Aldrich). Media containing equivalent vehicle alone (0.5% v/v DMSO) and ampicillin was used for comparison. SIH data was collected using the temperature sensitive-sterile strain TJ1060. All life span assays were conducted at 25° C. following adulthood.
Kaplan-Maier survival curves were generated and compared via non-parametric Log rank tests (Prism v5.0d, Graphpad Software).

C. elegans [2] = experiment: SEC-ICP-MS (LC-ICP-MS) chromatographic distribution of iron in SIH-treated C. elegans; format: in vivo, Caenorhabditis elegans
Method: Samples were homogenized in TBS (pH 8.0) with added proteinase inhibitors (EDTA-free, Roche), then clarified by a 15 min centrifugation at 175,000 g, 4° C. The protein concentration of the supernatant was determined via UV absorbance (Nanodrop, ThermoScientific) and equivalent protein amounts were size-excluded using a Bio SEC-5 (4.6×300 mm, 5 μm, Agilent) column with 200 mM ammonium nitrate (trace analysis grade, Sigma) pH 8.0 buffer the flow rate was 0.4 mL/min at 30° C. The eluant from the column was directly connected to the ICP-MS for elemental detection as previously described (37).

[3] = tested on: lysates of young adult wild type C. elegans; experiment: Ex vivo ROS production detected by DCF fluorescence from C. elegans lysates; format: biochemical, Caenorhabditis elegans; details: 50 μM DTPA added to lysate (10 μg) of young adult wild type
Method: 2′,7′-dichlorodihydrofluorescein diacetate (DCFH-DA) at 10 μM was used as a fluorescent probe for reactive oxygen species (ROS) detection in vivo using standard protocols (33). DCFH-DA enters and accumulates in the intestinal cells, where it is oxidized by several ROS (including hydroxyl radicals) to form the fluorophore DCF(34). Analysis of fluorescence rate increase was performed on samples sonicated in 1×TBS, pH 7.4 and recovered as the supernatant from a 100,000 g centrifugation at 4° C. Total protein concentration was determined by a Nanodrop spectrophotometer (Thermo Scientific). […] Fluorescence in 8 replicate wells was quantitated (Ex: 485 nm, Em: 535 nm using a 495 nm cut-off) by a FlexStation (Molecular Devices) plate reader, using 30 reads every minute for 1 h at medium PMT setting. Values from lysate-free (negative) controls were subtracted and the fluorescence data was then base line corrected. A linear regression fitted from 20-40 minutes and the slopes were normalized against 4-day old wild type and plotted (Prism v5.0d, Graphpad Software).

Row | Compound | dose-dependency of lifespan extension (C. elegans [1]; 0, 100, 250 μM SIH) | median lifespan (C. elegans [1]; 100 μM SIH) | median lifespan (C. elegans [1]; 250 μM SIH) | increase in lifespan (C. elegans [1]; control versus 250 μM SIH median lifespan) | Ferritin-bound iron (Peak #2) effect (C. elegans [2]; 250 μM SIH, 10 day old, integration of peak area) | LMW-iron (Peak #3) effect in words (C. elegans [2]; 250 μM SIH, 10 day old, integration of peak area from triplicate data) | HMW-iron (Peak #1) effect (C. elegans [2]; 250 μM SIH, C. elegans aged to 10 days) | LMW-iron (Peak #3) normalized peak area change (C. elegans [2]; 250 μM SIH, C. elegans aged to 10 days, versus control) | total soluble zinc effect (C. elegans [2]; SIH treatment (data not shown)) | ROS production (DCF fluorescence) effect [3]
1 | O=C(NN=Cc1ccccc1O)c1ccncc1 [SIH, salicylaldehyde isonicotinoyl hydrazone] | dose-dependency | 17 days | 21 days | 75% | reduced; also recorded: decreased | reduced; also recorded: lowered; also recorded: attenuated | unaffected | −43% | unaffected | –
2 | diethylenetriamine penta-acetic acid [DTPA] | – | – | – | – | – | – | – | – | – | abolished; also recorded: silenced
